Laboratory results taken from patent US20030175270A1, “Methods of regulating cytokine receptor signaling” (priority 2002, published 2003).

Tests used:
Coxsackievirus B3 (CVB3) = experiment: CVB3 replication in Jurkat cells, plaque-forming assay; format: cell-based, human; conditions: IFN-α 1,000 units/ml pretreatment 4 h; cd45-deficient vs parental Jurkat cells
Method: For Coxsackievirus infections in vitro, Jurkat cells were pretreated with IFN-α (1,000 units ml−^1) for 4 h and inoculated in triplicate with 3×10^5 CVB3 for 1 h at 37° C. Cells were then washed to remove excess IFN-α and excess CBV3 virus, and resuspended in RPMI medium containing 10% FBS. After 24 h, culture supernatants were analyzed for the presence of infectious CVB3 by using plaque-forming assays in HeLa cell monolayers. For CVB3 infections in vivo , the cd45mutation was backcrossed onto an A/J (H2^k/k ) background for five generations. A/J (H2^k/k) mice are highly susceptible to acute and chronic CVB3 infections. Four-week-old mice were inoculated intraperitoneally with 10^5 plaque-forming units of CVB3. For lethality scores, cd45−^/− (n=25) and cd45^± (n=22) littermate mice were monitored daily after infection. […] At defined time points, mice were sacrificed and organs were processed for histology. Sections from eight mice per group were stained with haematoxylin/eosin and Masson blue. In all experiments, the CVB3 strain Gauntt-Chow was used.
IFN-α and IFN-α R-regulated signaling are critical for replication of the picomavirus Coxsackievirus B3 (CVB3) in vitro and CVB3 infections in vivo [Kandolf et al., J. Mol. Cell. Cardiol. 17:167-181, 1985]. […] CVB3 titres were measured after infection of parental or cd45-deficient Jurkat cell lines. […]

rCD45 = target: T1, rCD45 (Homo sapiens, UniProt P08575); experiment: inhibition of rCD45-mediated JAK2 dephosphorylation; format: biochemical; conditions: 0.1 mM Na3 VO4, 10 U rCD45
T1 construct: The rCD45 employed contained the intracellular dual PTPase domains with a relative molecular mas of 97,000 (Mr 97K); purchased Calbiochem
T1 sequence (P08575 599-1306 limits assumed): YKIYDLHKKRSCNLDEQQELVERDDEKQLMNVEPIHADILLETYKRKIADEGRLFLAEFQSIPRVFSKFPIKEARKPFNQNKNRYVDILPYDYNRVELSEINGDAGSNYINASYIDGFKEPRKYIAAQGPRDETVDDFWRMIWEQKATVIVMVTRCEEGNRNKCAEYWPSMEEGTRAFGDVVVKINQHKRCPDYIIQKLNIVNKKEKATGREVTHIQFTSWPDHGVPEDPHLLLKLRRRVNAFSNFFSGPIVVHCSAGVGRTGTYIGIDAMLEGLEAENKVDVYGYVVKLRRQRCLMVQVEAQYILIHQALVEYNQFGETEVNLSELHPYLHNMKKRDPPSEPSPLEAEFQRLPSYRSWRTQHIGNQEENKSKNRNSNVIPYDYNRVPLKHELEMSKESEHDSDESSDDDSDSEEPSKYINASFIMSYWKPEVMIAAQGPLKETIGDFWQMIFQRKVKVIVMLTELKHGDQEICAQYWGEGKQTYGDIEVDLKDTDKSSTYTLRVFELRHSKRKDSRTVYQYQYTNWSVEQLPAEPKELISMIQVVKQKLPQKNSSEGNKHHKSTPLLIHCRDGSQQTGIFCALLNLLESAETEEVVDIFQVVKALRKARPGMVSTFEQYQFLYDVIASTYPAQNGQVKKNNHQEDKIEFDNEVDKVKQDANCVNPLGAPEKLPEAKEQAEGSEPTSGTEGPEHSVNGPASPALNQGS
Method: For tyrosine phosphatase assays, immunoprecipitated Lyn, JAKs or STATs from lysates of 10^7 BMMCs (for Lyn, JAK1, JAK2, STAT3 and STAT5) or macrophages (for Tyk2) were washed in lysis buffer and phosphatase reaction buffer [Felberg et al., J. Biol. Chem. 273:17839-17845, 1998]. The amounts of Lyn and JAK2 in the immunoprecipitates used in FIG. 3A were 72 ng and 48 ng, respectively, as determined by silver staining. Recombinant CD45 was added to substrates in the presence or absence of 0.1 mM Na3 VO4 followed by incubation at 30° C. for 20 min. Tyrosine phosphorylation was monitored by immunoblotting with phosphotyrosine-specific antibodies. The extent of tyrosine phosphorylation and amount of substrates were determined by quantifying the intensities of the immunoblots with NIH Image 1.61 software. Kinase activity in anti-Lyn or anti-JAK immunoprecipitates was assessed by an in vitro kinase assay with Raytide (Oncogen Science) as a substrate or using authophosphorylation [Lui et al., Genes Dev. 13:786-791, 1999]. In vitro binding assays were performed as described [Felberg et al., J. Biol. Chem. 273:17839-17845, 1998], using 1 μg of soluble GST, GST-CD45-D2, or GST-PTPase-dead CD45 (D1:C828S). EMSAs were as described [Charurvedi et al., Mol. Cell. Biol. 17:3295-3304, 1997]. The sequences of the EMSA probes were: STAT3, 5′-[…]-3′ (SEQ ID NO: 1); STAT3 mutant, 5′-[…]-3′ (SEQ ID NO: 2). […]

JAK2 = JAK2 activation/phosphorylation in IL-3 stimulated BMMCs treated with Src inhibitor; format: cell-based, mouse
Method: (§1) Murine BMMCs, splenic B cells, thymocytes, peritoneal macrophages and Jurkat T-cell lines were stimulated with various cytokines. For immunoprecipitations, lysates were incubated with antibodies conjugated with agarose or Sepharose beads for 2 h at 4° C. Total cell lysates or immunoprecipitates were separated using SDS-polyacrylamide gel electrophoresis, transferred onto membranes and immunoblotted. COS cells were transfected using diethylaminoethyl-dextron transfection technique with wild-type or PTPase-dead CD45 (D1:C828s) as described [McKenney et al., J. Biol. Chem. 270:24949-24954, 1995].
For tyrosine phosphatase assays, immunoprecipitated Lyn, JAKs or STATs from lysates of 10^7 BMMCs (for Lyn, JAK1, JAK2, STAT3 and STAT5) or macrophages (for Tyk2) were washed in lysis buffer and phosphatase reaction buffer [Felberg et al., J. Biol. Chem. 273:17839-17845, 1998]. The amounts of Lyn and JAK2 in the immunoprecipitates used in FIG. 3A were 72 ng and 48 ng, respectively, as determined by silver staining. […] Tyrosine phosphorylation was monitored by immunoblotting with phosphotyrosine-specific antibodies. The extent of tyrosine phosphorylation and amount of substrates were determined by quantifying the intensities of the immunoblots with NIH Image 1.61 software. […]

STAT3 = STAT3 Tyr 705 phosphorylation in IL-3 stimulated BMMCs treated with Src inhibitor; format: cell-based, mouse; conditions: IL-3 stimulated cd45+/+ or cd45-/- BMMCs
Method: as §1
(§2) Experiments were designed in order to assess whether Src kinases, known substrates of CD45, were deregulated during hyperactivation of the JAK-STAT pathway in cd45^−/− BMMCs. […] In addition, in IL-3 stimulated cd45^+/+ or cd45 ^−/− BMMCs, treatment with PP2 had no effect on the increased phosphorylation of the specific residues Tyr 1007 and TYR1008 in JAK2, Tyr 705 in STAT3, and Tyr 1022 and Tyr 1023 in JAK1 (see FIG. 2).

JAK1 = JAK1 Tyr 1022/Tyr 1023 phosphorylation in IL-3 stimulated BMMCs treated with Src inhibitor; format: cell-based, mouse; conditions: IL-3 stimulated cd45+/+ or cd45-/- BMMCs
Method: as §1, §2

IFN-α
suppression of CVB3 viral amplification (Coxsackievirus B3 (CVB3)): suppressed viral amplification more efficiently in cd45-deficient cells than in parental Jurkat cells

[Na+].[Na+].[Na+].[O]=[V]([O-])([O-])[O-] [vanadate, Na3 VO4]
effect on rCD45-mediated JAK2 dephosphorylation (rCD45): inhibits
effect on rCD45-mediated JAK2 dephosphorylation (rCD45; listed as mandate): blocked JAK2 dephosphorylation

CC(C)(C)n1nc(-c2ccc(Cl)cc2)c2c(N)ncnc21 [PP2]
increased phosphorylation of Tyr 1007 and Tyr 1008 in JAK2 (JAK2; IL-3 stimulated cd45+/+ or cd45-/- BMMCs): no effect
JAK2 activation (JAK2; cd45+/+ and cd45-/- BMMCs, addition of the inhibitor): unaffected
increased phosphorylation of Tyr 705 in STAT3 (STAT3): no effect
increased phosphorylation of Tyr 1022 and Tyr 1023 in JAK1 (JAK1): no effect
